This is an account of results in patent US9901571B2, “Tetrahydropyrazolopyridine derivatives as ghrelin receptor agonists” (RaQualia Pharma Inc., priority 2014, dated 2018).

A value given as a limit tells only on which side of the number the result lay.

As a reminder, the EC50 is the concentration that produces a half-maximal response. A higher EC50 goes with weaker potency.

A short description of series [1]: Half-life in human liver microsomes (HLM), HLM CLint. It is filed as in vitro ADME. To be noted: for CLint scaled at 1 microM: human, human liver microsomes (XTreme 200), 1 microM test compound, 0.61 mg protein/mL HLM, pH 7.4, 37° C., read-out: HLM CLint (clearance in human liver microsome); for Ratio of HLM CLint over comparison 1: ratio between comparison compound 1 and the example. The protocol:
Half-Life in Human Liver Microsomes (HLM)
Test compounds (1 microM) are incubated with 1 mM MgCl2 and 0.61 mg protein/mL HLM (XTreme 200) in 100 mM phosphate buffer (pH 7.4) at 37° C. on the 96-deep well plate. An aliquot of samples is collected at […], where 0 […] the time when NADPH is added into the reaction mixture. Collected aliquots are extracted with acetonitrile solution containing an internal standard. The precipitated protein is spun down in centrifuge (2000 rpm, […]). The compound concentration in supernatant is measured by LC/MS/MS system.
The half-life value is obtained by plotting the natural logarithm of the peak area ratio of compound/internal standard versus time. The slope of the line of the best fit through the points yields the elimination rate constant (kel). This is converted to a half-life value using a following equation: Half-life=1n2/kel.
Background: Microsomes from liver hold many membrane-bound enzymes, among them those of drug oxidation.

Another series addresses T1, human ghrelin receptor (Homo sapiens, UniProt Q92847).
T1 construct: expressed in transfected cells; host or cells: HEK293
Briefly: Ghrelin receptor agonistic activity induced Ca2+ influx in HEK293 cells stably expressing human ghrelin receptor. The series is classed as cell-based. To be noted: 11-point dose-response. The protocol:
Measurement of the ghrelin receptor agonistic activity induced Ca^2+ influx in HEK293 cells stably expressing human ghrelin receptor
HEK293 cells stably expressing human ghrelin receptor are maintained in Dulbecco's modified Eagle medium (high glucose) supplemented with 10% fetal bovine serum, 100 units/mL penicillin, 100 microg/mL streptomycin and 500 microg/mL G418 at 37° C. in a humidified incubator with 5% CO2 and grown to 60-80% confluence. The day before the assay, the cells are seeded on poly-D-lysine coated 384-well plates (BD FALCON) at a density of 10,000 cells per well and incubated overnight in incubator.
On the day of the assay, the cells are washed at three times with assay buffer (Hanks' balanced salt solution with 20 mM HEPES, pH7.4), and are incubated for 1 hour at room temperature to load 0.5 microM Fluo-4 AM reagent (Invitrogen).
After removing Fluo-4, and washing with assay buffer, the cells are added with various concentrations of the compounds. The changes in intracellular calcium concentration are monitored with the fluorescence imaging plate reader, FDSS6000 (Hamamatsu Photonics).
The EC50 values for compounds of the present invention are determined from 11-point dose-response studies. Curves are generated using the average of duplicate wells for each data point. Finally, the EC50 values are calculated using the best-fit dose curve determined by XLfit (ID Business Solutions Ltd).

T1 sequence (Q92847 whole entry): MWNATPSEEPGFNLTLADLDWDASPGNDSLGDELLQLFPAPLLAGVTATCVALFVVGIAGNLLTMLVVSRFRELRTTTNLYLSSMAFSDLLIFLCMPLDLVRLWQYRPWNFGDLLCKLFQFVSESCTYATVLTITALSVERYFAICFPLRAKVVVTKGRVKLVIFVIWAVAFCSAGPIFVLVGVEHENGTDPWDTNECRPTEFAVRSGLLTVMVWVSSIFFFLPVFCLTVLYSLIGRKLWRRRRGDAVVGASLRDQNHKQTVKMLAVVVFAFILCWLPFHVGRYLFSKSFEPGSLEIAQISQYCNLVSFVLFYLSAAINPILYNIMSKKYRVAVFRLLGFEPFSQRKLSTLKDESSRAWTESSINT

Consider `CN1N=C2CCN(C(=O)[C@@H](CCc3ccccc3)NC(=O)C(C)(C)N)C[C@@]2(Cc2ccccc2)C1=O` [Example 2, 2-amino-N—((R)-1-((R)-3a-benzyl-2-methyl-3-oxo-3a,4,6,7-tetrahydro-2H-pyrazolo[4,3-c]pyridin-5(3H)-yl)-1-oxo-4-phenylbutan-2-yl)-2-methylpropanamide], for which, in series [1], the CLint scaled at 1 microM came out at 54.5 mL/min/kg and the “Ratio of HLM CLint over comparison 1” value came to 2.4. Moreover, the EC50 on human ghrelin receptor is under 20 nM.

For `CC(C)(N)C(=O)N[C@H](CCc1ccc(F)cc1CO)C(=O)N1CCC2=NN(CC(F)(F)F)C(=O)[C@]2(Cc2ccccn2)C1` [Example 17, 2-amino-N—((R)-4-(4-fluoro-2-(hydroxymethyl)phenyl)-1-oxo-1-((R)-3-oxo-3a-(pyridin-2-ylmethyl)-2-(2,2,2-trifluoroethyl)-3a,4,6,7-tetrahydro-2H-pyrazolo[4,3-c]pyridin-5(3H)-yl)butan-2-yl)-2-methylpropanamide], in series [1], the CLint scaled at 1 microM was 56.7 mL/min/kg and the “Ratio of HLM CLint over comparison 1” value stood at 2.3. Besides, the concentration for a half-maximal effect (EC50) on human ghrelin receptor is under 20 nM.

Consider `CN1N=C2CCN(C(=O)[C@@H](CCCc3cccc(C(F)(F)F)n3)NC(=O)C(C)(C)N)C[C@@]2(Cc2ccccc2)C1=O` [Example 10, 2-amino-N—((R)-1-((R)-3a-benzyl-2-methyl-3-oxo-3a,4,6,7-tetrahydro-2H-pyrazolo[4,3-c]pyridin-5(3H)-yl)-1-oxo-5-(6-(trifluoromethyl)pyridin-2-yl)pentan-2-yl)-2-methylpropanamide], for which, in series [1], the CLint scaled at 1 microM was determined as 44.2 mL/min/kg and the “Ratio of HLM CLint over comparison 1” value is reported as 2.9. On human ghrelin receptor, this molecule showed an EC50 of under 20 nM.

Regarding `CC(C)(N)C(=O)N[C@H](CCc1ccccc1)C(=O)N1CCC2=NN(CC(F)(F)F)C(=O)[C@]2(Cc2ccccn2)C1` [Example 14, 2-amino-2-methyl-N—((R)-1-oxo-1-((R)-3-oxo-3a-(pyridin-2-ylmethyl)-2-(2,2,2-trifluoroethyl)-3a,4,6,7-tetrahydro-2H-pyrazolo[4,3-c]pyridin-5(3H)-yl)-4-phenylbutan-2-yl) propanamide], in series [1], the CLint scaled at 1 microM turned out to be 51.5 mL/min/kg and the “Ratio of HLM CLint over comparison 1” value turned out to be 2.5. Moreover, at human ghrelin receptor, the concentration giving a half-maximal response (EC50) was under 20 nM.

Consider `CN1N=C2CCN(C(=O)[C@@H](CCCc3ccccc3CO)NC(=O)C(C)(C)N)C[C@@]2(Cc2ccccc2)C1=O` [Example 8, 2-amino-N—((R)-1-((R)-3a-benzyl-2-methyl-3-oxo-3a,4,6,7-tetrahydro-2H-pyrazolo[4,3-c]pyridin-5(3H)-yl)-5-(2-(hydroxymethyl)phenyl)-1-oxopentan-2-yl)-2-methylpropanamide], for which, in series [1], the CLint scaled at 1 microM turned out to be 48.5 mL/min/kg and the “Ratio of HLM CLint over comparison 1” value stood at 2.7. The same molecule returned an EC50 at human ghrelin receptor of under 20 nM.

In the case of `CN1N=C2CCN(C(=O)[C@@H](CCCc3cccc(CO)c3)NC(=O)C(C)(C)N)C[C@@]2(Cc2ccccc2)C1=O` [Example 7, 2-amino-N—((R)-1-((R)-3a-benzyl-2-methyl-3-oxo-3a,4,6,7-tetrahydro-2H-pyrazolo[4,3-c]pyridin-5(3H)-yl)-5-(3-(hydroxymethyl)phenyl)-1-oxopentan-2-yl)-2-methylpropanamide], in series [1], the CLint scaled at 1 microM stood at 53.5 mL/min/kg and the “Ratio of HLM CLint over comparison 1” value was 2.4. Also, the EC50 on human ghrelin receptor is under 20 nM.

Consider `CN1N=C2CCN(C(=O)[C@@H](CCCc3cccc(C(F)F)n3)NC(=O)C(C)(C)N)C[C@@]2(Cc2ccccc2)C1=O` [Example 13, 2-amino-N—((R)-1-((R)-3a-benzyl-2-methyl-3-oxo-3a,4,6,7-tetrahydro-2H-pyrazolo[4,3-c]pyridin-5(3H)-yl)-5-(6-(difluoromethyl)pyridin-2-yl)-1-oxopentan-2-yl)-2-methylpropanamide], for which, in series [1], the CLint scaled at 1 microM is 36 mL/min/kg and the “Ratio of HLM CLint over comparison 1” value was found to be 3.6. This molecule displayed an EC50 on human ghrelin receptor of under 20 nM.

With `CN1N=C2CCN(C(=O)[C@@H](CCCc3ccccn3)NC(=O)C(C)(C)N)C[C@@]2(Cc2ccccc2)C1=O` [Example 9, 2-amino-N—((R)-1-((R)-3a-benzyl-2-methyl-3-oxo-3a,4,6,7-tetrahydro-2H-pyrazolo[4,3-c]pyridin-5(3H)-yl)-1-oxo-5-(pyridin-2-yl)pentan-2-yl)-2-methylpropanamide], in series [1], the CLint scaled at 1 microM is 19.7 mL/min/kg and the “Ratio of HLM CLint over comparison 1” value came to 6.6. For the same molecule, the EC50 at human ghrelin receptor was under 20 nM.

For the molecule `CN1N=C2CCN(C(=O)[C@@H](CCc3ccc(CO)cc3Cl)NC(=O)C(C)(C)N)C[C@@]2(Cc2ccccc2)C1=O` [Example 3, 2-amino-N—((R)-1-((R)-3a-benzyl-2-methyl-3-oxo-3a,4,6,7-tetrahydro-2H-pyrazolo[4,3-c]pyridin-5(3H)-yl)-4-(2-chloro-4-(hydroxymethyl)phenyl)-1-oxobutan-2-yl)-2-methylpropanamide], in series [1], the CLint scaled at 1 microM turned out to be 43.5 mL/min/kg and the “Ratio of HLM CLint over comparison 1” value came to 3.0. In addition, the EC50 at human ghrelin receptor is under 20 nM.

On to `CN1N=C2CCN(C(=O)[C@@H](CCc3ccc(CO)cc3F)NC(=O)C(C)(C)N)C[C@@]2(Cc2ccccc2)C1=O` [Example 4, 2-amino-N—((R)-1-((R)-3a-benzyl-2-methyl-3-oxo-3a,4,6,7-tetrahydro-2H-pyrazolo[4,3-c]pyridin-5(3H)-yl)-4-(2-fluoro-4-(hydroxymethyl)phenyl)-1-oxobutan-2-yl)-2-methylpropanamide], for which, in series [1], the CLint scaled at 1 microM was found to be 21.7 mL/min/kg and the “Ratio of HLM CLint over comparison 1” value turned out to be 6.0. Moreover, the EC50 on human ghrelin receptor is under 20 nM.

On to `CN1N=C2CCN(C(=O)[C@@H](CCc3cc(CO)ccc3F)NC(=O)C(C)(C)N)C[C@@]2(Cc2ccccc2)C1=O` [Example 5, 2-amino-N—((R)-1-((R)-3a-benzyl-2-methyl-3-oxo-3a,4,6,7-tetrahydro-2H-pyrazolo[4,3-c]pyridin-5(3H)-yl)-4-(2-fluoro-5-(hydroxymethyl)phenyl)-1-oxobutan-2-yl)-2-methylpropanamide], for which, in series [1], the CLint scaled at 1 microM was 44.6 mL/min/kg and the “Ratio of HLM CLint over comparison 1” value came to 2.9. The EC50 on human ghrelin receptor is under 20 nM.
